In patent publication US8263344B2, “Compounds regulating calreticulin, KDEL receptor and/or Erp-57 cell surface exposure and uses thereof to evaluate the efficiency of a cancer treatment” (Institut Gustave Roussy, priority 2006, dated 2012):

Experiments:
MCA205, B16F10, J558 = assay: CRT exposure on a panel of murine tumour cell lines; format: cell-based
CT26 tumours [1] = assay: Single intratumoural injection into established CT26 tumours, athymic mice; design: species or system nu/nu Balb/c mice; details: mouse, in vivo
CT26 cells [2] = assay: Fluorescence detection of cell surface CRT; format: cell-based, murine
Experimental: CT26 cells were cultured at 37° C. under 5% CO2 in RPMI 1640 medium supplemented with 10% FCS, penicillin, streptomycin, 1 mM pyruvate and 10 mM HEPES in the presence of doxorubicin (DX; 24 h, 25 μM), mitoxantrone (Mitox; 24 h, 1 μM, Sigma), idarubicin (24 h, 1 μM, Aventis, France), mitomycin C (30 μM, 48 h; Sanofi-Synthelabo, France), and/or zVAD-fmk (50 μM, 24 h; Bachem), tunicamycin (24 h, 65 μM), thapsigargin (24 h, 30 μM), brefeldin A (24 h, 50 μM, Sigma), etoposide (48 h, 25 μM, Tava classics), MG132 (48 h, 10 μM), ALLN (48 h, […]), betulinic acid (24 h, 10 μM), Hoechst 33343 (24 h, 0.2 μM), camptothecine (24 h, 15 μM), lactacystin (48 h, 60 μM), BAY 11-8072 (24 h, 30 μM), staurosporine (24 h, 1.5 μM), bafilomycin A1 (48 h, 300 nM), arsenic trioxide (24 h, 30 μM), C2-ceramide (C2-C; 24 h, 60 μM), calyculin A (48 h, 30 nM), or tautomycin (48 h, […], Sigma) and/or salubrinal (48 h, […], Calbiochem).
CT26 cells (on a glass slide or in 12-well plates) were first washed with FACS buffer (1×PBS, 5% fetus bovine serum, and 0.1% sodium azide) and then incubated with rabbit anti-mouse CRT antibody (1:100, Stressgen) in FACS buffer at 4° C. for 30 min. Cells reacted with anti-rabbit IgG (H+L) Alexa fluor 488-conjugates (1:500) in FACS buffer at 4° C. for 30 min. After washing three times with FACS buffer, surface CRT was detected by cytofluorometric analysis on a FACS Vantage. In some experiments, cells were fixed with 4% paraformaldehyde, counterstained with Hoechst (2 μM; Sigma), followed by fluorescence microscopic assessment with a Leica IRE2 microscope equipped with a DC300F camera.

HeLa, A549, HCT116 = assay: CRT exposure on a panel of human tumour cell lines; format: cell-based
CT26 tumour cells = assay: Anti-tumour vaccination with treated (dying) CT26 cells and challenge with live tumour cells; format: in vivo, BALB/c mice; details: mouse, in vivo
CT26 tumours [3] = assay: Single intratumoural injection into established CT26 tumours, immunocompetent mice; format: in vivo, BALB/c mice; details: for therapeutic effect of intratumoural injection, single agent, immunocompetent mice: established 14-day-old CT26 tumours; for therapeutic effect combined with a cell death inducer (etoposide or mitomycin C), immunocompetent mice: intratumoural
CT26 colon cancer cells = assay: Calreticulin exposure with PP1/GADD34 inhibitory peptide (flow cytometry); format: cell-based, murine; details: 2 hours
Experimental: (§1) HCT116 cells (FIG. 7A) or CT26 cells (FIG. 7B) were cultured in complete mediums supplemented with 10% fetal calf serum alone or in the presence of the control peptide (VKKKKIKREIKI-lkaravafsekv) or the PP1/GADD34 inhibitory peptide (VKKKKIKREIKI-lkarkvrfsekv, denominated PP1 peptide) for 2 hours. Cells were washed twice with PBS and fixed in PFA (4% w/v) for 5 min. Cells were stained with an antibody against calreticulin (pAb from Abcam, ab2907) at 1:200 dilution or isotype control, in staining buffer (PBS, 1% FCS) for 30 min on ice, followed by washing. An anti-rabbit Alexa fluor 488 immunoglobulin conjugate (Molecular Probes-Invitrogen) diluted at 1:500 was added for an additional 30 min on ice before washing and analysed by flow cytometry (FACScan, Becton Dickinson). Propidium Iodide (50 μg/ml, Becton Dickinson) was added to the samples to label and exclude permeabilized (dead) cells.

HCT116 colon cancer cell = assay: as above; format: cell-based, human; details: 2 hours
Experimental: as §1

CT26 cells [4] = assay: Phagocytosis of tumour cells by dendritic cells (DC); format: cell-based, BALB/c mice
Experimental: BM cells were flushed from the tibias and femurs of BALB/c mice with culture medium composed of RPMI 1640 medium (Invitrogen Life Technologies) supplemented with 10% heat-inactivated FBS (Invitrogen), sodium pyruvate, 50 μM 2-ME (Sigma), 10 mM HEPES (pH 7.4), and penicillin/streptomycin (Invitrogen). After one centrifugation, BM cells were resuspended in Tris-ammonium chloride for 2 min to lyse RBC. After one more centrifugation, BM cells (1×10^6 cells/ml) were cultured in medium supplemented with 100 ng/ml recombinant mouse FLT3 ligand (R&D systems) in 6-well plates (Costar Corning). After 7 days, the non-adherent and loosely adherent cells were harvested with Versene, washed and transferred in 12-well plates (1.5×10^6 cells/plate) for cocultures with tumour cells.
In 12-well plates, […] adherent CT26 cells were labelled with Celltracker Green (Calbiochem) and then incubated with drugs. In some experiments viable CT26 were coated with 2 μg/10^6 cells of chicken anti-CRT antibody (ABR affinity bioreagents) or an isotype control for 30 min prior to washing and feeding to dendritic cells Cs. Alternatively CT26 cells were coated with 2 μg/10^6 cells of rCRT on ice for 30 min and washed twice prior to addition to dendritic cells. Cells were then harvested, washed three times with medium supplemented with FBS and cocultured with immature DC for 2 hours at a ratio of 1:1 and 1:5. At the end of the incubation, cells were harvested with versene, pooled with non-adherent cells present in the supernatant, washed and stained with CD11c-FITC antibody. Phagocytosis was assessed by FACS analysis of double positive cells. Phagocytic indexes refer to the ratio between values obtained at 4° C. and values obtained at 37° C. of co-incubation between DC and tumour cells.

DC = DC maturation ex vivo; format: cell-based; details: rCRT alone, over a large range of concentrations
CT26 cells [5] = assay: Local immune response: footpad injection, IFN-γ secretion by draining lymph node cells; format: in vivo, Balb/c mice; details: foot pad injection
Experimental: FIG. 4C: Exogenous supply of CRT enhances the immunogenicity of CRT-negative dying cells. CT26 cells lacking CRT expression after depletion of CRT with a siRNA and mitoxantrone treatment or after mitomycin treatment were coated with rCRT (inserts) and then injected in the food pad, followed by assessment of the IFN-γsecretion by cells from the draining lymph nodes as in FIG. 4B.
Tumours were evaluated weekly, using a caliper.

Molecule: O=C(/C=C/c1ccccc1)NC(NC(=S)Nc1cccc2cccnc12)C(Cl)(Cl)Cl (stereo not drawn) [salubrinal]
- CRT exposure, murine tumour cell lines (MCA205, B16F10, J558): induced CRT exposure
- therapeutic effect of intratumoural injection, single agent, nu/nu mice (CT26 tumours [1]): no major therapeutic effect
- CRT exposure at the cell surface (CT26 cells [2]): efficiently induced
- CRT exposure, human tumour cell lines (HeLa, A549, HCT116): induced CRT exposure
- immunogenic cell death by PP1/GADD34 inhibition alone (CT26 tumour cells): not sufficient to induce immunogenic cell death
- therapeutic effect of intratumoural injection, single agent, immunocompetent mice (CT26 tumours [3]): no major therapeutic effect
- therapeutic effect combined with a cell death inducer (etoposide or mitomycin C), immunocompetent mice (CT26 tumours [3]): stable disease or complete tumour regression

Molecule: VKKKKIKREIKI-LKARKVRFSEKV (VKKKKIKREIKILKARKVRFSEKV) [peptide comprising SEQ ID NO:4, fragment of GADD34 fused to a DPT-sh1 translocation motif]
- exposure of calreticulin, CT26 (CT26 colon cancer cells): capable of inducing the exposure of calreticulin
- exposure of calreticulin, HCT116 (HCT116 colon cancer cell): capable of inducing the exposure of calreticulin

Molecule: VKKKKIKREIKI-lkaravafsekv [mutant control peptide]
- exposure of calreticulin, CT26 (CT26 colon cancer cells): did not induce calreticulin exposure
- exposure of calreticulin, HCT116 (HCT116 colon cancer cell): did not induce calreticulin exposure

B1: rCRT: recombinant CRT protein (rCRT), which binds to the surface of the cells (protein, UniProt P27797 18-417, looked up)
Calreticulin: EPAVYFKEQFLDGDGWTSRWIESKHKSDFGKFVLSSGKFYGDEEKDKGLQTSQDARFYALSASFEPFSNKGQTLVVQFTVKHEQNIDCGGGYVKLFPNSLDQTDMHGDSEYNIMFGPDICGPGTKKVHVIFNYKGKNVLINKDIRCKDDEFTHLYTLIVRPDNTYEVKIDNSQVESGSLEDDWDFLPPKKIKDPDASKPEDWDERAKIDDPTDSKPEDWDKPEHIPDPDAKKPEDWDEEMDGEWEPPVIQNPEYKGEWKPRQIDNPDYKGTWIHPEIDNPEYSPDPSIYAYDNFGVLGLDLWQVKSGTIFDNFLITNDEAYAEEFGNETWGVTKAAEKQMKDKQDEEQRLKEEEEDKKRKEEEEAEDKEDDEDKDEDEEDEEDKEEDEEEDVPGQAKDEL
- phagocytosis by DC and CRT expression after CRT-specific siRNA, with addition of rCRT (CT26 cells [4]): could reverse the defect
- DC maturation (DC): could not promote DC maturation
- therapeutic effect of intratumoural injection, single agent, nu/nu mice (CT26 tumours [1]): no major therapeutic effect
- immunogenicity (interferon production by T cells from popliteal lymph node) of mitomycin-treated cells coated with rCRT (CT26 cells [5]): greatly enhanced the immunogenicity
- anti-cancer immune response to rCRT-coated cells without prior treatment with cell death inducers (CT26 tumour cells): failed to elicit an anti-cancer immune response
- anti-tumour immune response to etoposide-treated cells coated with rCRT (CT26 tumour cells): elicited a vigorous anti-tumour immune response
- immunogenicity of mitoxantrone-treated CT26 cells with CRT knock-down, complemented with rCRT (CT26 tumour cells): restored
- effect of rCRT injected into a distant site on intratumourally injected etoposide (CT26 tumours [3]; contralateral subcutaneous injection): did not ameliorate the antitumoural effects
- therapeutic effect of intratumoural injection, single agent, immunocompetent mice (CT26 tumours [3]): no major therapeutic effect
- therapeutic effect combined with a cell death inducer (etoposide or mitomycin C), immunocompetent mice (CT26 tumours [3]): able to cause tumour regression
